Reference: US9227956B2 (Pfizer Inc., priority 2013, dated 2016)

How the values were obtained:
human PCSK9 [1] = experiment: Cell Free PCSK9 Assay (PCSK9-luciferase RNA translated in HeLa cell lysate); type: biochemical; conditions: 30° C. for 45 minutes, luciferase readout, top concentration 100 μM
Method: In order to eliminate the permeability barrier inherent to the WT7 and SCHH cell-based assays a cell-free system was also established to access compound activity. […] The construct was then in-vitro transcribed using the MEGAscript T7 Kit (Life Technologies) and RNA subsequently purified incorporating the MEGAclear Kit (Life Technologies) according to manufacturer's protocols. […] Growth was in a 50 L wavebag at a rocker speed of 25 rpm and angle 6.1 with 5% CO2 and 0.2 LPM flow rate with cells harvested at a density of 2-2.5e6/ml. Lysates additionally contained 1 tablet of Roche cOmplete-EDTA protease inhibitors per 50 ml with tris(2-carboxyethyl)phosphine (Biovectra) substituted for dithiothreitol, and were clarified by an additional final centrifugation at 10,000 rpm in a Sorvall SS34 rotor at 4° C. for 10 minutes. Compound screening was performed in 384-well plates in an eleven point, 0.5 log dilution format at a top test compound concentration of 100 μM in a final volume of 0.5% DMSO. […] Upon assay completion 1 μL from each reaction solution was removed and transferred to a second 384-well Optiplate (Perkin Elmer) containing 24 μL of SteadyGlo (Promega) and signal intensity was measured on the Envision (Perkin Elmer) using the enhanced luminescence protocol. […] The test compound data were converted into percent effect, using the ZPE and HPE controls as 0% and 100% activity, respectively, applying Equation 1 above. IC50 was then calculated and reported as the midpoint in the percent effect curve in molar units and the values are reported under the Cell Free PCSK9 IC50 (μM) column header within Table 1 Biological Data.

human PCSK9 [2] = experiment: PCSK9 AlphaLISA assay, PCSK9 lowering in WT7 cells; conditions: WT7 cells (Huh7 stably over-expressing human PCSK9); secreted PCSK9 by AlphaLISA; overnight incubation (16-24 h); top concentration 20 μM; read-out: Cell Based PCSK9 IC50
From the text: An in-vitro AlphaLISA assay (Perkin Elmer) was developed in order to quantitate the level of PCSK9 secreted into the cell culture media following compound treatment. To detect and measure PCSK9 protein an in-house generated anti-PCSK9 antibody was coupled to AlphaLISA acceptor beads by an external vendor (PerkinElmer) and a second internally developed anti-PCSK9 antibody with an epiptope distinct from that of the acceptor beads was biotinylated in house. Streptavidin coated-donor beads (Perkin Elmer) are also included in the assay mixture which then binds the biotinylated anti-PCSK9 antibody and in the presence of PCSK9 this donor complex and acceptor beads are brought into close proximity. […] The ability of compound to modulate PCSK9 protein levels in conditioned media by AlphaLISA was assessed in the human hepatocellular carcinoma cell line Huh7, stably over-expressing human PCSK9. […] Following plasmid transfection the stable WT7 clone was identified and maintained under Zeocin selection. Compound screening was performed in 384-well plates where WT7 cells were plated at a density of 7500 cells per well in 20 μL of tissue culture media containing compound in an eleven point, 0.5 log dilution format at a high treatment concentration of 20 μM in a final volume of 0.5% DMSO. In additional to these test compound conditions each screening plate also included wells that contained 20 μM puromycin as a positive assay control defined as high percent effect, HPE, as well as wells containing media in 0.5% DMSO as a negative treatment control defined as zero percent effect, ZPE. After overnight compound incubation (16-24 h) the tissue culture media was collected and an aliquot from each sample was transferred to individual wells of a 384-well white Optiplate (Perkin Elmer). The coupled antibodies and donor beads were added to the assay plates in a buffer composed of 30 mM Tris pH 7.4, 0.02% Tween-20 and 0.02% Casein. Anti-PCSK9 acceptor beads (final concentration of 10 μg/mL) and anti-PCSK9 biotinylated antibody (final concentration of 3 nM) were added and incubated for 30 minutes at room temperature followed by the addition of the streptavidin donor beads (final concentration 40 μg/mL) for an additional 60 minutes. Additionally a standard curve was generated where AlphaLISA reagents were incubated in wells spiked with recombinant human PCSK9 diluted in tissue culture media from 5000 ng/mL to 0.6 ng/mL. […] The test compound data were converted into percent effect, using the ZPE and HPE controls as 0% and 100% activity, respectively. The equation used for converting each well reading into percent effect was:
[formula] IC50 was then calculated and reported as the midpoint in the percent effect curve in molar units and the values are reported under the Cell Based PCSK9 IC50 (μM) column header within Table 1 Biological Data. Additionally, to monitor the selectivity of compound response for PCSK9 the level of a second secreted protein, Transferrin, was measured from the same conditioned media treated with test compound by AlphaLISA. […] To detect and quantify effects on Transferrin 0.01 mL of the culture media was transferred to a 384-well white Optiplate and 0.01 mL of media was added to bring the volume to 0.02 ml. Anti-Transferrin acceptor beads were added to a final concentration of 10 μg/mL, biotinylated anti-Transferrin at 3 nM and streptavidin donor beads at 40 μg/mL. Percent effect and IC50 for Transferrin was computed in a similar manner as that described for PCSK9.

PCSK9 = PCSK9 lowering in sandwich culture human hepatocytes (SCHH); type: cell-based; conditions: maximum response versus vehicle
Method: Test compound in-vitro pharmacokinetic and pharmacodynamic relationships were measured in sandwich culture primary cryopreserved human hepatocytes. Within these studies SCHH cells (BD Biosciences IVT) were thawed at 37° C. then placed on ice, after which the cells were added to pre-warmed (37° C.) In VitroGRO-HT media and centrifuged at 50×g for 3 min. The cell pellet was re-suspended to 0.8×10^6 cells/mL in InVitroGRO-CP plating medium and cell viability determined by trypan blue exclusion. On day 1, hepatocyte suspensions were plated in BioCoat 96-well plates at a density of 80000 cells/well in a volume of 0.1 mL/well. After 18 to 24 hours of incubation at 37° C. in 5% CO2, cells were overlaid with ice-cold 0.25 mg/mL BD Matrigel Matrix Phenol Red-Free in incubation medium at 0.1 mL/well. Cultures were maintained at 37° C. in 5% CO2 in InVitroGRO-HI (FBS-free media), which was replaced every 24 hours and time course treatments were initiated on day 5. Prior to compound treatment cell plates were washed 3 times with 0.1 mL/well InVitroGRO-HI and 0.09 mL of media was added back in preparation for the compound additions. 1 uL of either DMSO or compound DMSO stocks at 30 mM, 10 mM, 3 mM and 1 mM were stamped into 96 well V bottom polypropylene plates. 0.099 mL of media was added to the compound plate and mixed thoroughly before the addition of 0.010 mL from the interim compound plate to the cell plate. […] At the indicated time, 0.08 mL of media was removed from the cell plates and frozen for subsequent analysis of secreted PCSK9 by AlphaLISA and for determination of drug levels in the media by liquid chromatography-tandem mass spectrometry (LC-MS/MS). The remaining media was then aspirated and the cell layers were washed 3× with ice cold Hanks Balanced Salt Solution (HBSS) under shaking conditions to remove the matrigel overlay and plates were then stored at −20° C. for subsequent determination of drug levels in the cells by LC-MS/MS. AlphaLISA determination of PCSK9 protein levels within the conditioned media was performed ultilizing the identical reagents and detection protocols described above for the WT7 cells.

Row | Structure (SMILES) | IC50 (human PCSK9 [1]) [µM] | IC50 (human PCSK9 [2]) [µM] | Sandwich Culture Hepatocyte (SCHH) PCSK9 Lowering (PCSK9; at 6 h at 30 uM) [% at 6 h at 30 uM] | Sandwich Culture Hepatocyte (SCHH) PCSK9 Lowering (PCSK9; at 8 h at 30 μM) [% at 8 h at 30 μM]
1 | Cc1cccnc1N(C(=O)c1ccc(-c2cnn(C)c2-c2nnn(C(C)OC(=O)OC(C)C)n2)cc1)[C@@H]1CCCNC1 (single isomer, unassigned) [Example 38] | 2.19 | – | 3 | –
2 | Cc1cccnc1N(C(=O)c1ccc(-c2cnn(C)c2-c2nnn(C(C)OC(=O)OC(C)C)n2)cc1)[C@@H]1CCCNC1 (single isomer, unassigned) [Example 39] | 0.592 | – | 0 | –
3 | Cc1cccnc1N(C(=O)c1ccc(-c2cnn(C)c2-c2nnn(C(OC(=O)OC(C)C)C(C)C)n2)cc1)[C@@H]1CCCNC1 (single isomer, unassigned) [Example 42] | 7.38 | > 20 | 19 | –
4 | Cc1cccnc1N(C(=O)c1ccc(-c2cnn(C)c2-c2nnn(C(OC(=O)OC(C)C)C(C)C)n2)cc1)[C@@H]1CCCNC1 (single isomer, unassigned) [Example 43] | 31.9 | > 20 | 21 | –
5 | CCC(=O)OC(C)n1nnc(-c2c(-c3ccc(C(=O)N(c4ncccc4C)[C@@H]4CCCNC4)cc3)cnn2C)n1 (single isomer, unassigned) [Example 44] | 4.39 | > 20 | 12 | –
6 | CCC(=O)OC(C)n1nnc(-c2c(-c3ccc(C(=O)N(c4ncccc4C)[C@@H]4CCCNC4)cc3)cnn2C)n1 (single isomer, unassigned) [Example 45] | 25.1 | > 20 | 8 | –
7 | CCC(=O)OC(C(C)C)n1nnc(-c2c(-c3ccc(C(=O)N(c4ncccc4C)[C@@H]4CCCNC4)cc3)cnn2C)n1 (single isomer, unassigned) [Example 48] | 7.68 | > 20 | 16 | –
8 | CCC(=O)OC(C(C)C)n1nnc(-c2c(-c3ccc(C(=O)N(c4ncccc4C)[C@@H]4CCCNC4)cc3)cnn2C)n1 (single isomer, unassigned) [Example 49] | 15.4 | > 20 | 0 | –
9 | Cc1cccnc1N(C(=O)c1ccc(-c2cnn(C)c2-c2nnn(C(C)OC(=O)C(C)C)n2)cc1)[C@@H]1CCCNC1 (single isomer, unassigned) [Example 50] | 8.03 | > 20 | 37 | –
10 | CCOC(=O)c1c(-c2ccc(C(=O)N(c3ncccc3Cl)[C@@H]3CCCNC3)cc2)cnn1C [Example 6, ethyl 4-(4-{(3-chloropyridin-2-yl)[(3R)-piperidin-3-yl]carbamoyl}phenyl)-1-methyl-1H-pyrazole-5-carboxylate] | 1.7 | – | – | 80

The next lines start with the values.

Row | IC50 (human PCSK9 [1]) [µM] | IC50 (human PCSK9 [2]) [µM] | Sandwich Culture Hepatocyte (SCHH) PCSK9 Lowering (PCSK9; at 6 h at 30 uM) [% at 6 h at 30 uM] | Sandwich Culture Hepatocyte (SCHH) PCSK9 Lowering (PCSK9; at 8 h at 30 μM) [% at 8 h at 30 μM] | Structure (SMILES)
11 | 7.26 | > 20 | 0 | – | CCOC(=O)OC(CC)n1nnc(-c2c(-c3ccc(C(=O)N(c4ncccc4C)[C@@H]4CCCNC4)cc3)cnn2C)n1 (single isomer, unassigned) [Example 32]
12 | 23.7 | > 20 | 32 | – | CCOC(=O)OC(CC)n1nnc(-c2c(-c3ccc(C(=O)N(c4ncccc4C)[C@@H]4CCCNC4)cc3)cnn2C)n1 (single isomer, unassigned) [Example 33]
13 | 5.22 | > 20 | 20 | – | CCOC(=O)OC(C(C)C)n1nnc(-c2c(-c3ccc(C(=O)N(c4ncccc4C)[C@@H]4CCCNC4)cc3)cnn2C)n1 (single isomer, unassigned) [Example 34]
14 | 6.2 | > 20 | 28 | – | CCOC(=O)OC(C(C)C)n1nnc(-c2c(-c3ccc(C(=O)N(c4ncccc4C)[C@@H]4CCCNC4)cc3)cnn2C)n1 (single isomer, unassigned) [Example 35]
15 | 5.43 | > 20 | 27 | – | CCOC(=O)OC(n1nnc(-c2c(-c3ccc(C(=O)N(c4ncccc4C)[C@@H]4CCCNC4)cc3)cnn2C)n1)C(C)(C)C (single isomer, unassigned) [Example 36]
16 | 22.9 | > 20 | 25 | – | CCOC(=O)OC(n1nnc(-c2c(-c3ccc(C(=O)N(c4ncccc4C)[C@@H]4CCCNC4)cc3)cnn2C)n1)C(C)(C)C (single isomer, unassigned) [Example 37]
17 | 18.2 | > 20 | 26 | – | CCC(OC(=O)OC(C)C)n1nnc(-c2c(-c3ccc(C(=O)N(c4ncccc4C)[C@@H]4CCCNC4)cc3)cnn2C)n1 (single isomer, unassigned) [Example 40]
18 | 15.4 | > 19.4 | 35 | – | CCC(OC(=O)OC(C)C)n1nnc(-c2c(-c3ccc(C(=O)N(c4ncccc4C)[C@@H]4CCCNC4)cc3)cnn2C)n1 (single isomer, unassigned) [Example 41]
